Columns and labels:
[1] = test system: cerebellar granule neurons (CGNs); assay: High-content screen and dose-response of CGN neurite growth on PDL/myelin; assay type: cell-based; conditions: library compounds at 5 μM shown
Procedure: FIG. 2 is data from a high-content screen of neurite growth on […] (PDL)/myelin. The data for 312 compounds are summarized for total neurite growth normalized to the PDL control. The first three bars show PDL (blue), PDL/myelin (red), and PDL/myelin/dbcAMP (green). […] Straight lines drawn across data represent growth levels with dbcAMP, PDL, myelin, and 50% of the myelin level. The majority of compounds had little or no effect at the concentrations tested (5 μM is shown). […] These four compounds are subsequently referred to as lead compounds.
CGNs were cultured on PDL (control) or on myelin in the presence of the 4 hit compounds at concentrations (in nM) shown. The Cellomics Kinetic Scan Reader (an automated microscope) was used to evaluate average neurite length per neuron in each condition. Growth on myelin in the absence of compounds was set at 100% (origin of y-axis). The black horizontal line represents growth on the control (PDL) substrate; thus growth at or above this line represents complete reversal of the myelin inhibition. Each compound completely reversed growth inhibition by the myelin.
The triazine compounds were added to cultures of primary cerebellar granule neurons (CGNs) to test their ability to promote neurite growth on an inhibitory substrate (PDL/central nervous system myelin). […] The compounds can promote growth on other inhibitory substrates as well. […]

CGNs = assay: Neurite growth of CGNs on permissive substrates (PDL, laminin); assay type: cell-based; conditions: CGNs on PDL or laminin (LN)
Procedure: CGNs were cultured on PDL or laminin (LN) substrates in the absence or presence of one of the four lead compounds, or on LN in the presence of Gö6976. Neurons grew neurites on PDL, and grew longer neurites on LN.
(§1) The triazine compounds were added to cultures of primary cerebellar granule neurons (CGNs) to test their ability to promote neurite growth on an inhibitory substrate (PDL/central nervous system myelin). […] The compounds can promote growth on other inhibitory substrates as well. When a mixture of inhibitory chondroitin sulfate proteoglycans (CSPGs) on PDL was used as a substrate, neurite growth of CGNs was increased by each compound, as shown in FIG. 3. The compounds evidently act by overcoming inhibitory signals.

E15 rat spinal neurons = assay: Growth of spinal neurons on CSPG substrates; assay type: cell-based; conditions: two days
Procedure: E15 rat spinal neurons were cultured on LN, or on LN and CSPGs (LN/CSPG) for two days. They were stained for nuclei (blue) and neuronal beta-tubulin (green).

[2] = test system: cerebellar granule neurons (CGNs); assay: Neurite growth of CGNs on CSPG substrates; assay type: cell-based; conditions: laminin/CSPG substrate
Procedure: as §1

cAMP levels in CGNs = assay: cAMP levels in CGNs; assay type: cell-based; conditions: two hours, PDL or PDL/myelin, forskolin at concentrations indicated in chart
Procedure: CGNs were cultured for two hours on PDL or on PDL/myelin in the absence or presence of the four lead compounds at […] (F) at the concentrations indicated in the chart. Forskolin increased neuronal cAMP levels by 100-250-fold, while the lead compounds produced no significant increases.

cPKC = assay: In vitro PKC assay; assay type: biochemical; conditions: preincubated directly with the enzyme; lead compounds at concentrations optimally effective on cells

## CCCC(=O)Nc1ncnc2c1ncn2[C@@H]1O[C@@H]2COP(=O)(O)O[C@H]2[C@H]1OC(=O)CCC [dbcAMP]
[1]
  total neurite growth normalized to the PDL control: inhibition is overcome

## Cn1c2ccccc2c2c3c(c4c5ccccc5n(CCC#N)c4c21)CNC3=O [Go6976]
CGNs
  neurite growth on permissive substrates: significantly increased growth on LN
E15 rat spinal neurons
  growth of spinal neurons on LN/CSPG: somewhat restored
[2]
  neurite growth on LN/CSPG mixture: largely reversed

## C=C[C@@]1(C)CC(=O)[C@]2(O)[C@@]3(C)[C@@H](O)CCC(C)(C)[C@@H]3[C@H](O)[C@H](OC(C)=O)[C@@]2(C)O1 [Forskolin, forskolin]
cAMP levels in CGNs
  increase of neuronal cAMP levels: 100-250 fold

## Calphostin C
cPKC
  effect on cPKC activity: inhibits cPKC

Source: US20100239500A1, “SUBSTITUTED TRIAZINE COMPOUNDS FOR NERVE REGENERATION” (priority 2007, published 2010)
